≈ marks a conversion by molar mass, not a printed value.
Experiments:
[1] = tested on: Escherichia coli; experiment: Antimicrobial activity against qnrS1-positive multidrug-resistant Escherichia coli isolate 9 expressing gyrA S83L/D87N and parC S80I mutants by Etest
[2] = tested on: Escherichia coli; experiment: Antimicrobial activity against qnrS1-positive multidrug-resistant Escherichia coli isolate 3 expressing beta-lactamase CTX-M-15, gyrA S83L/D87N and parC S80I mutant by Etest
[3] = tested on: Escherichia coli; experiment: Antimicrobial activity against qnrS1-positive multidrug-resistant Escherichia coli isolate 10 expressing gyrA S83L/D87N and parC S80I mutants by Etest
[4] = tested on: Escherichia coli; experiment: Antimicrobial activity against Escherichia coli harboring plasmid carrying qnrS1 gene by Etest
[5] = tested on: Escherichia coli; experiment: Antimicrobial activity against qnrS1-positive ampicillin-resistant Escherichia coli isolate 8 expressing gyrA S83L/D87N and parC S80I mutants by Etest
[6] = tested on: Escherichia coli; experiment: Antimicrobial activity against qnrS1-positive ampicillin and amoxicillin-resistant Escherichia coli isolate 6 expressing gyrA S83L/D87N and parC S80I mutants by Etest
[7] = tested on: Escherichia coli; experiment: Antimicrobial activity against qnrS1-positive multidrug-resistant Escherichia coli isolate 4 expressing gyrA S83L/D87N and parC S80I mutants by Etest
[8] = tested on: Escherichia coli; experiment: Antimicrobial activity against qnrS1-positive ampicillin-resistant Escherichia coli isolate 7 expressing gyrA S83L/D87N and parC S80I mutants by Etest

O=C(O)c1cn(C2CC2)c2cc(N3CCNCC3)c(F)cc2c1=O [CIPROFLOXACIN]
MIC [1]: 128 µg/mL (≈ 386 µM)
MIC [2]: 64 µg/mL (≈ 193 µM)
MIC [3]: 128 µg/mL (≈ 386 µM)
MIC [4]: 0.032 µg/mL (≈ 0.0966 µM)
MIC [5]: 128 µg/mL (≈ 386 µM)
MIC [6]: 64 µg/mL (≈ 193 µM)
MIC [7]: 64 µg/mL (≈ 193 µM)
MIC [8]: 128 µg/mL (≈ 386 µM)
